According to publication PMC10424183, “Determination of Ligand-Binding Affinity (Kd) Using Transverse Relaxation Rate (R2) in the Ligand-Observed ^1H NMR Experiment and Applications to Fragment-Based Drug Discovery” (Journal of Medicinal Chemistry, 2023):
Read-outs that look alike come from different tables or passages of the source.

Assays:
[1] = biological target: T1, CRBN/DDB1 complex (Homo sapiens, UniProt Q96SW2); assay: R2KD ligand-observed 1H NMR assay (Kd from transverse relaxation rate R2); format: binding
T1 construct: made in house
Description: 10 samples were prepared: samples 1–8 containing increasing ligand concentration (maintaining constant protein concentration); sample 9 and 10 containing only ligands at two different concentrations (protein absent). These two samples served as control samples to obtain the R2 values of free ligand. The final percentage of DMSO-d6 in all samples were identical to minimize possible impacts of DMSO-d6.
(§1) Here, we present how we used the R2KD assay to triage fragment hits against the CRBN/DDB1 complex. The CRBN/DDB1 complex is part of the E3 ligase system, with its thalidomide-binding domain (TBD) pocket critical for recruiting its substrate protein.[20] […] The R2 values of these fragments were measured at two ligand concentrations (200 and 50 μM) against 2 μM of the CRBN/DDB1 complex. This enabled preliminary ranking of hits. The hits with larger R2 differences rank higher. […] We also determined IC50 of the top 10 fragments using a FP based biochemical assay.[17]
(§2) The T2 relaxation experiment was acquired using pulse program CPMG with 3-9-19 pulse sequence with gradients incorporated to suppress the water signal.[22] Extra water suppression was achieved by adding presaturation during D1. The spin-echo period (delay-180°-delay) was set to 1 msec (d20 is 500 μs), and the relaxation delay (d1) was set to 10 s. The pseudo-2D experiment contained nine slices with spin-echo period repeated the following times: 4, 20, 100, 200, 300, 500, 700, 1000, and 2000.
Nonlinear regression analysis was carried out using GraphPad Prism 9.2.0. […] Three parameters: P, α, and Kd were in the equation with the initial value set at 1. […] CIs of parameters was calculated at 95% level using Asymmetrical (Profile-likelihood) CI.

[2] = biological target: T1, CRBN/DDB1 complex; assay: FP based biochemical assay; format: binding; settings: top 10 fragments
Text: To determine the accuracy of Kd measured using the R2KD assay, we tested seven small molecule ligands (Figure 4) against three protein targets (BCL6, CRBN/DDB1 complex, and ERAP1) and compared their Kd values from the R2KD assay with known Ki values (Table 1) obtained in biochemical binding assays[15],[17],[18] or Kd value from the SPR binding assay.[19] We found good agreements between the Kd values and the Ki values, with most of them less than two-fold difference from those determined from biochemical or biophysical assays. […] We found the assay setup to be simple and positive controls unnecessary, making the approach suitable for new and challenging targets.
Here, we present how we used the R2KD assay to triage fragment hits against the CRBN/DDB1 complex. The CRBN/DDB1 complex is part of the E3 ligase system, with its thalidomide-binding domain (TBD) pocket critical for recruiting its substrate protein.[20] A fragment library, composed of around 1000 compounds, was screened using R2 relaxation edited ^1H-NMR experiments, with 19 fragments subsequently identified as competitive hits for the TBD pocket. The R2 values of these fragments were measured at two ligand concentrations (200 and 50 μM) against 2 μM of the CRBN/DDB1 complex. This enabled preliminary ranking of hits. The hits with larger R2 differences rank higher. […] We then measured the Kd values of the top 10 fragments using R2KD assay and confirmed the ranking order (Table 2). We also determined IC50 of the top 10 fragments using a FP based biochemical assay.[17]

[3] = biological target: T1, CRBN/DDB1 complex; assay: R2 values of fragment hits at two ligand concentrations (preliminary ranking); format: binding; settings: 2 μM CRBN/DDB1 complex; for average R2, compound at 50 μM: 50 μM ligand; for average R2, compound at 200 μM: 200 μM ligand; for average R2, differences: R2 at 50 μM minus R2 at 200 μM
Description: as §1, §2

[4] = biological target: T1, CRBN/DDB1 complex; settings: known Ki from biochemical binding assay, Δ39CRBN/ΔBPBDDB1 complex; cited from earlier work
[5] = R2KD assay, Δ39CRBN/ΔBPBDDB1 complex, repeated three times (average), read-out: Kd
[6] = fragment hit triage, top 10 fragments, read-out: R2KD assay Kd

T1 sequence (Q96SW2 40-442 limits assumed, species assumed, one chain of several): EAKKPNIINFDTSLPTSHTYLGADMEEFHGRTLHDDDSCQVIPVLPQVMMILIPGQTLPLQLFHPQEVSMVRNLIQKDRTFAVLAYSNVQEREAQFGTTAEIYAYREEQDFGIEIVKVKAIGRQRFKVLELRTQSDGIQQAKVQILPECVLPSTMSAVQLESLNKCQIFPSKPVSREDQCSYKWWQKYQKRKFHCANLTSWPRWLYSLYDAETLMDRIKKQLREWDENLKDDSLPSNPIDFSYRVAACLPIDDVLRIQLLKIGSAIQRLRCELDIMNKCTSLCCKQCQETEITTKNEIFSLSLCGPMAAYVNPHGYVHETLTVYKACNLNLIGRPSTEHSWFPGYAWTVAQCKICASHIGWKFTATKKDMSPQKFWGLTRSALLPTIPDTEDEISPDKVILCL

| SMILES | Kd [1, 5] [µM] | Kd [1, 6] [µM] | IC50 [2] [µM] | average R2, compound at 50 μM [3] | average R2, compound at 200 μM [3] | average R2, differences [3] | Ki [4] [µM] |
| --- | --- | --- | --- | --- | --- | --- | --- |
| Cc1ccc(N2CC(=O)NC2=O)cc1 [CCT010354] | 156 | 122 | 240 | 4.9 | 2 | 2.9 | 294 |
| CNC(=O)c1nc(-c2ccccc2)n(-c2ccccc2)n1 [CCT226703] | – | – | – | 1.5 | 1.4 | 0.1 | – |
| CCOc1cccc(C2CC(=O)NC3=C2C(=O)CCC3)c1 (centres unmarked) [CCT228041] | – | – | – | 1.6 | 1.5 | 0.1 | – |
| N#CCCCN1C(=O)COc2ccc(Cl)cc21 [CCT228155] | – | 798 | 1640 | 3 | 2.2 | 0.8 | – |
| CCOc1ccc(C2CNC(=O)C2)cc1 (centres unmarked) [CCT239822] | – | 532 | 780 | 3.6 | 2.4 | 1.2 | – |
| O=CN1CCN(Cc2c(F)cccc2Cl)CC1 [CCT240107] | – | – | – | 1.6 | 1.5 | 0.1 | – |
| O=CN1CCN(Cc2cccc(Cl)c2)CC1 [CCT240121] | – | – | – | 3.8 | 3.3 | 0.4 | – |
| O=C(c1ccc(F)cc1)N1CCN(c2ccccc2)CC1 [CCT240195] | – | – | – | 1.6 | 1.4 | 0.2 | – |
| O=c1ccn(Cc2ccccc2)c(=O)[nH]1 [CCT240207] | – | 86 | 168 | 3.4 | 1.2 | 2.2 | – |
| COc1ccc(C(=O)N2CCN(c3ccccn3)CC2)cc1 [CCT240246] | – | – | – | 1.5 | 1.3 | 0.2 | – |
| Nc1ccc(C(=O)NCC2COc3ccccc3O2)cc1 (centres unmarked) [CCT240545] | – | 638 | > 3000 | 2 | 1.5 | 0.5 | – |
| COC(=O)c1ccc2c(c1)NC(=O)CO2 [CCT240569] | 88 | 72 | 153 | 7.2 | 2.6 | 4.6 | 140 |
| CC(=O)N1CCN(S(=O)(=O)c2ccc(C(C)C)cc2)CC1 [CCT240867] | – | – | – | 1.2 | 1.1 | 0.1 | – |
| CC(=O)Nc1cc2c(cc1C(=O)C(C)C)OCCO2 [CCT242848] | – | 532 | > 3000 | 3.8 | 2.5 | 1.2 | – |
| COc1cc2c(cc1OC)C(c1cccc(O)c1)CC(=O)N2 (centres unmarked) [CCT242858] | – | 1200 | 1370 | 2.5 | 2.1 | 0.5 | – |
| N#CCCCn1c(=O)oc2ccc(Cl)cc21 [CCT242918] | – | – | – | 1.6 | 1.3 | 0.3 | – |
